Measured values: ChEMBL document CHEMBL4699558, “Lead optimization of 8-(methylamino)-2-oxo-1,2-dihydroquinolines as bacterial type II topoisomerase inhibitors” (Bioorg Med Chem, 2020)
In brackets after ≈: the same amount, converted by molar mass.

Experiments:
DNA gyrase = DNA gyrase (Escherichia coli, UniProt P0AES4+P0AES6); assay: Inhibition of Escherichia coli DNA gyrase by measuring supercoiling activity incubated for 60 mins by fluorescence based assay; assay type: protein-complex assay
Escherichia coli [1] = assay: Antibacterial activity against Escherichia coli ATCC 25922 in presence of PAbetaN by CLSI method; assay type: functional
Staphylococcus aureus [2] = assay: Antibacterial activity against Staphylococcus aureus ATCC 29213 by CLSI method; assay type: functional
Escherichia coli [3] = assay: Antibacterial activity against Escherichia coli ATCC 25922 by CLSI method; assay type: functional
[4] = Inhibition of Escherichia coli topoisomerase IV by measuring relaxation activity incubated for 30 mins by fluorescence based assay
Streptococcus pneumoniae [5] = assay: Antibacterial activity against genotype penicillin-resistant Streptococcus pneumoniae by CLSI method; assay type: functional
Staphylococcus aureus [6] = assay: Antibacterial activity against Methicillin-resistant Staphylococcus aureus by CLSI method; assay type: functional
Enterococcus = assay: Antibacterial activity against Vancomycin-resistant Enterococcus by CLSI method; assay type: functional
Streptococcus anginosus = assay: Antibacterial activity against Streptococcus anginosus ATCC 33397 by CLSI method; assay type: functional
Enterococcus faecium [7] = assay: Antibacterial activity against Enterococcus faecium ATCC 35667 by CLSI method; assay type: functional
Haemophilus influenzae = assay: Antibacterial activity against Haemophilus influenzae ATCC 43095 by CLSI method; assay type: functional
Streptococcus pneumoniae [8] = assay: Antibacterial activity against Streptococcus pneumoniae ATCC 49619 by CLSI method; assay type: functional
Enterococcus faecalis [9] = assay: Antibacterial activity against Enterococcus faecalis ATCC 29212 by CLSI method; assay type: functional
Enterococcus faecalis [10] = assay: Antibacterial activity against vancomycin-resistant Enterococcus faecalis ATCC 51575 by CLSI method; assay type: functional
Staphylococcus aureus [11] = assay: Antibacterial activity against community-acquired Methicillin -resistant Staphylococcus aureus ATCC BAA-1556 by CLSI method; assay type: functional
Staphylococcus aureus [12] = assay: Antibacterial activity against hospital-acquired Methicillin -resistant Staphylococcus aureus ATCC BAA-811 by CLSI method; assay type: functional
Enterococcus faecium [13] = assay: Antibacterial activity against vancomycin-resistant Enterococcus faecium ATCC 51559 by CLSI method; assay type: functional

Row | SMILES | IC50 (DNA gyrase) [nM] | MIC (Escherichia coli [1]) [µg/mL] | MIC (Staphylococcus aureus [2]) [µg/mL] | MIC (Escherichia coli [3]) [µg/mL] | IC50 [4] [nM] | other results
1 | CNc1cc(F)cc2cc(C(=O)Nc3ccc(C(=O)N(C)CCN4CCOCC4)cc3)c(=O)[nH]c12 | 6.36 | 0.12 | 16 (≈ 33.2 µM) | > 16 |  | 
2 | CNc1cc(F)cc2c(NCCN)c(C(=O)Nc3ccc(C(=O)O)cc3)c(=O)[nH]c12.O=CO | 0.94 | 4 | > 16 | > 16 |  | 
3 | CNc1cc(F)cc2cc(C(=O)Nc3ccc(C(=O)O)cc3CN(CCN)C3CCCCC3)c(=O)[nH]c12.O=C(O)C(F)(F)F | 3.68 | 16 | > 64 | > 64 |  | 
4 | CNc1cc(F)cc2cc(C(=O)Nc3ccc(C(=O)NCCN4CCOCC4)cc3)c(=O)[nH]c12 | 7.29 | 0.06 | > 16 | 4 (≈ 8.56 µM) | 1300 | 
5 | CCCCCN(C)Cc1cc(C(=O)O)ccc1NC(=O)c1cc2cc(F)cc(NC)c2[nH]c1=O | 0.21 | ≤ 0.03 | 0.5 (≈ 1.07 µM) | 4 (≈ 8.54 µM) | 41.4 | 
6 | C[C@@H](O)[C@H]1C(=O)N2C(C(=O)O)=C(S[C@@H]3CN[C@H](C(=O)N(C)C)C3)[C@H](C)[C@H]12 [MEROPENEM] |  |  |  |  |  | MIC50 (Streptococcus pneumoniae [5]): 0.5 µg/mL (≈ 1.3 µM); MIC90 (Streptococcus pneumoniae [5]): 1 µg/mL (≈ 2.61 µM)
7 | CNc1cc(F)cc2c(N[C@H]3C[C@@H](N)C3)c(C(=O)Nc3ccc(C(=O)O)cc3)c(=O)[nH]c12.O=CO | 2.66 | 1 | > 32 | > 32 |  | 
8 | CCCCCCCCCC(=O)N[C@@H](Cc1c[nH]c2ccccc12)C(=O)N[C@H](CC(N)=O)C(=O)N[C@@H](CC(=O)O)C(=O)N[C@@H]1C(=O)NCC(=O)N[C@@H](CCCN)C(=O)N[C@@H](CC(=O)O)C(=O)N[C@H](C)C(=O)N[C@@H](CC(=O)O)C(=O)NCC(=O)N[C@H](CO)C(=O)N[C@@H]([C@H](C)CC(=O)O)C(=O)N[C@@H](CC(=O)c2ccccc2N)C(=O)O[C@@H]1C |  |  |  |  |  | MIC50 (Staphylococcus aureus [6]): 1 µg/mL (≈ 0.617 µM); MIC90 (Staphylococcus aureus [6]): 1 µg/mL (≈ 0.617 µM); MIC50 (Enterococcus): 2 µg/mL (≈ 1.23 µM); MIC90 (Enterococcus): 4 µg/mL (≈ 2.47 µM)
9 | CNc1cc(F)cc2cc(C(=O)Nc3ccc(C(=O)O)cc3CNC3CCCCC3)c(=O)[nH]c12.O=C(O)C(F)(F)F | 0.26 | 0.5 | 16 | 32 |  | 
10 | CNCCc1c(C(=O)Nc2ccc(C(=O)O)cc2)c(=O)[nH]c2c(NC)cc(F)cc12.O=C(O)C(F)(F)F | 109 | > 8 | > 8 | > 8 |  | 
11 | CNc1cc(F)cc2cc(C(=O)Nc3ccc(C(=O)O)cc3CN(C)C3CCCCC3)c(=O)[nH]c12.Cl | 0.53 | ≤ 0.03 | 2 | 8 | 47.4 | 
12 | CNc1cc(F)cc2cc(C(=O)Nc3cnc(C(=O)O)nc3)c(=O)[nH]c12 | 0.95 | > 16 | > 16 | > 16 | 32.5 | 
13 | CNc1cc(F)cc2c(O)c(C(=O)Nc3ccc(C(=O)NS(=O)(=O)N(C)C)cc3CN3CCCCC3)c(=O)[nH]c12 | 4.44 | 0.06 |  | 64 (≈ 111 µM) |  | 
14 | CNc1cc(F)cc2c(O)c(C(=O)Nc3ccc(C(=O)O)cc3CN3CCCCC3)c(=O)[nH]c12.O=C(O)C(F)(F)F | 7.53 | ≤ 0.015 |  | 8 | 4930 | MIC (Streptococcus anginosus): 0.5 µg/mL; MIC (Enterococcus faecium [7]): 1 µg/mL; MIC (Haemophilus influenzae): 0.12 µg/mL; MIC (Streptococcus pneumoniae [8]): 0.5 µg/mL; MIC (Enterococcus faecalis [9]): 0.12 µg/mL
15 | CNc1cc(F)cc2c(NCCCN)c(C(=O)Nc3ccc(C(=O)O)cc3)c(=O)[nH]c12.O=CO | 0.52 | 2 | > 8 | > 8 |  | 
16 | CNc1cc(F)cc2cc(C(=O)Nc3ccc(C(=O)O)cc3CN(C)C3CC3)c(=O)[nH]c12 | 0.6 | ≤ 0.03 | > 8 | > 8 | 771 | 
17 | CN(C)c1cc(NC(=O)CNC(C)(C)C)c(O)c2c1C[C@H]1C[C@H]3[C@H](N(C)C)C(O)=C(C(N)=O)C(=O)[C@@]3(O)C(O)=C1C2=O [TIGECYCLINE] |  |  | 0.25 (≈ 0.427 µM) | 0.25 (≈ 0.427 µM) |  | MIC (Streptococcus anginosus): 0.06 µg/mL (≈ 0.102 µM); MIC (Staphylococcus aureus [6]): 0.25 µg/mL (≈ 0.427 µM); MIC50 (Staphylococcus aureus [6]): 0.25 µg/mL (≈ 0.427 µM); MIC90 (Staphylococcus aureus [6]): 2 µg/mL (≈ 3.41 µM); MIC (Enterococcus faecalis [10]): 0.25 µg/mL (≈ 0.427 µM); MIC (Enterococcus faecium [7]): 0.06 µg/mL (≈ 0.102 µM); MIC (Staphylococcus aureus [11]): 0.5 µg/mL (≈ 0.854 µM); MIC (Streptococcus pneumoniae [8]): 0.06 µg/mL (≈ 0.102 µM); MIC50 (Enterococcus): 0.25 µg/mL (≈ 0.427 µM); MIC90 (Enterococcus): 0.5 µg/mL (≈ 0.854 µM); MIC (Enterococcus faecalis [9]): 0.12 µg/mL (≈ 0.205 µM); MIC (Staphylococcus aureus [12]): 0.25 µg/mL (≈ 0.427 µM); MIC (Enterococcus faecium [13]): 0.12 µg/mL (≈ 0.205 µM)
18 | CNc1cc(F)cc2c(NCCN3CCOCC3)c(C(=O)Nc3ccc(C(=O)O)cc3)c(=O)[nH]c12.O=CO | 14.6 | 0.12 | 32 | > 64 |  | 
